Laboratory results: the supplement of paper PMC11451515

Test system: SEM cells
Test: cell viability relative to DMSO control; higher = less cytotoxic
Settings: 48 h
How it was run: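 Viability values are per-plate percentages of DMSO wells, with background from cell-free wells. Library compounds in DMSO were pin-dosed, in an 11-point threefold series from 47 μM to 0.79 nM, onto NOMO1 or SEM (500 cells/well) or P12-Ichikawa (1000 cells/well) leukemia cells in 1536-well plates (5 μl). Those cells had been adapted for at least four passages in each medium, and CellTiter-Glo One luminescence was read after 48 h at 37°C.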

[1] = RPMI 5 mM glucose + 10% FBS, 0.000781 µM
[2] = RPMI 5 mM glucose + 10% FBS, 0.00234 µM
[3] = RPMI 5 mM glucose + 10% FBS, 0.00702 µM
[4] = RPMI 5 mM glucose + 10% FBS, 0.0211 µM
[5] = RPMI 5 mM glucose + 10% FBS, 0.0632 µM
[6] = RPMI 5 mM glucose + 10% FBS, 0.19 µM
[7] = RPMI 5 mM glucose + 10% FBS, 0.569 µM
[8] = RPMI 5 mM glucose + 10% FBS, 1.71 µM
[9] = RPMI 5 mM glucose + 10% FBS, 5.12 µM
[10] = RPMI 5 mM glucose + 10% FBS, 15.4 µM
[11] = RPMI 5 mM glucose + 10% FBS, 46.1 µM
[12] = HPLM + 10% dialyzed FBS, 0.000781 µM
[13] = HPLM + 10% dialyzed FBS, 0.00234 µM
[14] = HPLM + 10% dialyzed FBS, 0.00702 µM
[15] = HPLM + 10% dialyzed FBS, 0.0211 µM
[16] = HPLM + 10% dialyzed FBS, 0.0632 µM
[17] = HPLM + 10% dialyzed FBS, 0.19 µM
[18] = HPLM + 10% dialyzed FBS, 0.569 µM
[19] = HPLM + 10% dialyzed FBS, 1.71 µM
[20] = HPLM + 10% dialyzed FBS, 5.12 µM
[21] = HPLM + 10% dialyzed FBS, 15.4 µM
[22] = HPLM + 10% dialyzed FBS, 46.1 µM

SMILES | cell viability [1] [%] | cell viability [2] [%] | cell viability [3] [%] | cell viability [4] [%] | cell viability [5] [%] | cell viability [6] [%] | cell viability [7] [%] | cell viability [8] [%] | cell viability [9] [%] | cell viability [10] [%] | cell viability [11] [%] | cell viability [12] [%] | cell viability [13] [%] | cell viability [14] [%] | cell viability [15] [%] | cell viability [16] [%] | cell viability [17] [%] | cell viability [18] [%] | cell viability [19] [%] | cell viability [20] [%] | cell viability [21] [%] | cell viability [22] [%] | cell viability (RPMI 5 mM glucose + 10% dialyzed FBS, 0.000781 µM) [%] | cell viability (RPMI 5 mM glucose + 10% dialyzed FBS, 0.00234 µM) [%] | cell viability (RPMI 5 mM glucose + 10% dialyzed FBS, 0.00702 µM) [%] | cell viability (RPMI 5 mM glucose + 10% dialyzed FBS, 0.0211 µM) [%] | cell viability (RPMI 5 mM glucose + 10% dialyzed FBS, 0.0632 µM) [%] | cell viability (RPMI 5 mM glucose + 10% dialyzed FBS, 0.19 µM) [%] | cell viability (RPMI 5 mM glucose + 10% dialyzed FBS, 0.569 µM) [%] | cell viability (RPMI 5 mM glucose + 10% dialyzed FBS, 1.71 µM) [%] | cell viability (RPMI 5 mM glucose + 10% dialyzed FBS, 5.12 µM) [%] | cell viability (RPMI 5 mM glucose + 10% dialyzed FBS, 15.4 µM) [%] | cell viability (RPMI 5 mM glucose + 10% dialyzed FBS, 46.1 µM) [%]
CCCCc1oc2ccccc2c1C(=O)c1cc(I)c(OCCN(CC)CC)c(I)c1 | 108 | 116 | 132 | 136 | 115 | 113 | 136 | 116 | 119 | 107 | 97.6 | – | – | – | – | – | – | – | – | – | – | – | – | – | – | – | – | – | – | – | – | – | –
CC1CCN(c2cc(N3CCN(C)CC3)ccc2NC(=O)c2cc(C#N)c[nH]2)CC1 | 119 | 124 | 136 | 137 | 123 | 123 | 133 | 129 | 92.9 | 102 | 83.5 | 122 | 119 | 120 | 129 | 129 | 121 | 124 | 118 | 112 | 102 | 93.6 | – | – | – | – | – | – | – | – | – | – | –
CC(=O)O/N=C1/C(=C2\C(=O)Nc3cc(Br)ccc32)Nc2ccccc21 | 112 | 116 | 109 | 108 | 119 | 102 | 87.6 | 29.5 | 22.4 | 8.09 | 0.612 | 128 | 110 | 119 | 118 | 111 | 113 | 86.1 | 37.8 | 32.8 | 13.2 | 2.6 | 113 | 122 | 122 | 129 | 100 | 95 | 84.6 | 30.1 | 37.5 | 11.8 | 1.61
